Data set [1] deals with HNF4α. Details: method as in PMID 33114319. As to conditions: reporter gene assay; cited from earlier work. (Reporter assays use an easily measured gene product as a stand-in for the process of interest.)
In data set [2] the test system is fructose-1,6-bisphosphatase 1 (FBP1). Details: method as in PMID 33114319. As to conditions: HepG2 cells; cited from earlier work.
Data set [3] deals with HNF4α. Details: method as in PMID 33114319. Conditions: ITC; cited from earlier work. Background: In ITC the heat of successive injections is recorded.
For another data set, the system named is ATF6. Description: ATF6 activity assay. In kind it is cell-based. Conditions: tunicamycin treated Hela ATF6 reporter cells. An excerpt: Next, we evaluated the potential impact of the NR2 modulator set on endoplasmic reticulum (ER) stress in an ATF6 activity assay (Fig. 4b). The activating transcription factor 6 (ATF6) participates in the unfolded protein response and is activated under ER stress.[164] Tunicamycin-induced ATF6 activity was not affected by RXR and TLX modulators but was reduced by the inverse PNR agonists 22 and 23.
Hela cells containing a Renilla luciferase reporter gene for ATF6 activity (ATF6 Leeporter™ Luciferase Reporter-HeLa Cell Line, Abeomics Inc.; #14-138ACL) were cultured in DMEM supplemented with 10% heat-inactivated FCS, penicillin (100 U/mL), streptomycin (100 μg/mL) and puromycin (3 µg/mL) at 37°C and 5% (v/v) CO2 and seeded in 96-well plates (1 × 10^5 per well). After 24 h, the cells were incubated with the test compounds solubilized with 0.1% DMSO in the same medium without puromycin. After 4 h of incubation, tunicamycin (100 ng/mL) was added. After another 18 h of incubation, cells were assayed for renilla luminescence using DualGlo reagent (Promega) on a Tecan SPARK Cyto (Tecan). Test samples were normalized to the 0.1% DMSO control.

The subject of the next data set is COS-7 cells. As to the kind of experiment: Multiplex toxicity assay. In kind it is cell-based. As to conditions: 24 h, at active concentration. The method, then:
COS-7 cells (DSMZ #ACC 60) were cultured at 37°C and 5% CO2 in DMEM high glucose medium supplemented with sodium pyruvate (1 mM), penicillin (100 U/mL), streptomycin (100 µg/mL), and 10% fetal calf serum (FCS). After aspirating the wells, the cells were seeded at 1x10^5 cells per well in complete culture medium. […] Each sample was prepared in at least 4 biologically independent replicates. After incubation for 24 h, the wells were aspirated and incubated for 30 min with stimulation medium containing 1 µM NucView® 405 fluorogenic caspase-3 substrate (#10405, Biotium, Fremont, USA) and Live-or-Dye Nuc-Fix Red (0.05x, Biotium, Inc., Fremont, CA, 1691 USA) to detect apoptosis and necrosis, respectively. After incubation, a total of 6 fluorescence images per well at 10x magnification were taken to detect NucView®-positive (Ex: 381–400 nm, Em: 414–450 nm) and Live-or-Dye-positive cells (Ex: 543−566 nm, Em: 580−611 nm) using on a Tecan Spark Cyto (Tecan Group AG). Reference readings for background correction and detection of auto-fluorescence were taken at 414–450 nm prior to staining. Thereafter, wells were aspirated, the cells were incubated for 3 h with 90 µL culture medium (0.2% FCS) and 10 µL Cell Counting Kit-8 solution (CCK-8, MedChem Express #HY-K0301), and absorbance was measured at 1, 2, and 3h of incubation at 450 nm on a Tecan Spark Cyto to assess metabolic activity of the cells. Before drug administration, after the first medium exchange, 24 h after drug administration, and after fluorescence imaging cell confluence was assessed using the Tecan Spark Cyto, to account for changes in cell confluence due to drug administration and cell handling. The number of apoptotic cells, metabolic activity, and changes in cell confluence in response to drug treatment were all normalized to the vehicle control of each biological replicate individually.

For a further data set, the system named is PNR protein levels. Details: method as in PMID 35508617, PMID 19379737. Conditions: retinoblastoma cells, 1 µM, Western blot; cited from earlier work. Background: A western blot detects proteins with antibodies after separation by electrophoresis.
The target in a further data set is MBP-PNR-LBD. Details: method as in PMID 35508617. Conditions: determined by UV absorption; cited from earlier work.
In the next data set the test system is MBP-NR2E1-LBD. Details: method as in PMID 35508617. As to conditions: MS-based binding experiment; cited from earlier work.
The test system of the next data set is nuclear receptors. As to the kind of experiment: Selectivity profiling in Gal4-hybrid reporter gene assay panel. In kind it is cell-based, human. Conditions: at active concentration.
Another data set deals with PNR. Details: method as in PMID 35508617. As to conditions: cited from earlier work.
Data set [4] has as its target PNR mutations associated with Enhanced S-Cone Syndrome (ESCS). Details: method as in PMID 35508617. Conditions: cited from earlier work.

The text below walks through data of publication PMC7617459, “Comparative Evaluation and Profiling of Chemical Tools for the Nuclear Hormone Receptor Family 2” (ACS pharmacology & translational science, 2025).

Structures are written as SMILES.

A word on the IC50: it is the concentration that gives 50% inhibition. What is called Kd is a measure of binding affinity in units of concentration. Broadly, the EC50 is the midpoint of the concentration-response curve.

Description for nuclear receptors: Compounds were tested at concentrations around EC90 according to the literature or at the highest nontoxic concentration (from the multiplex toxicity assay). […] (b) Selectivity profiling of NR2 modulators in a representative panel of nuclear receptors outside the NR2 family. […] Effects <5% of the respective reference ligands were considered as not relevant and omitted. Only effects are shown that are statistically significant against VP16 ctrl (Figure S3); n = 3.
HEK293T cells (German Collection of Microorganisms and Cell Culture GmbH, DSMZ) were cultured in Dulbecco’s modified Eagle’s medium (DMEM), high glucose supplemented with 10% fetal calf serum (FCS), sodium pyruvate (1 mM), penicillin (100 U/mL), and streptomycin (100 μg/mL) at 37 °C and 5% CO2 and seeded in 96-well plates (3 × 10^4 cells/well). The medium was changed to Opti-MEM without supplements, and the cells were transiently transfected with one pFA-CMV-hNR-LBD clone, pFR-Luc, and pRL-SV40 using Lipofectamine LTX reagent (Invitrogen, Thermo Fisher Scientific) according to the manufacturer’s instructions. Five hours after transfection, cells were incubated with the test compounds in Opti-MEM supplemented with penicillin (100 U/mL), streptomycin (100 μg/mL), and 0.1% DMSO. Each sample was set up in duplicates and tested in at least three independent experiments. After 16 h incubation, luciferase activity was measured using the Dual-Glo Luciferase Assay System (Promega) according to the manufacturer’s protocol on a Tecan Spark luminometer (Tecan Deutschland GmbH, Crailsheim, Germany). Firefly luminescence was divided by Renilla luminescence and multiplied by 1000 resulting in relative light units (RLUs) to normalize for transfection efficiency and cell growth. Fold activation was obtained by dividing the mean RLU of the test compound by the mean^a RLU of the untreated control, and relative activation was calculated by dividing the fold activation of a test sample by the fold activation of the respective reference agonist. Antagonistic effects were evaluated by coincubation of the test compound with the respective reference ligand.

With `OC(c1ccc(F)cc1)c1ccc(F)cc1` [compound 5], the 50% inhibitory concentration (IC50) with HNF4α [1] is 24000 nM. Besides, in data set [2], the “expression of HNF4 target gene FBP1” value is “diminished expression”. In addition, the Kd on HNF4α [3] was 1700 nM.

`C=CC1=C(C)/C(=C/C2=NC(=C\c3[nH]c(/C=C4\NC(=O)C(C)=C4C=C)c(C)c3CCC(=O)O)/C(CCC(=O)O)=C2C)NC1=O` [compound 25, biliverdin]: the “tunicamycin-induced ATF6 activity” value with ATF6 is “slightly diminished”. For the same molecule, the cytotoxicity entry in the data set with COS-7 cells is recorded as “lack of cytotoxicity”. Further, in the data set on PNR protein levels, the PNR protein levels entry was “two-fold increase”. Besides, the Kd on MBP-PNR-LBD is 200 nM; in data set [4], 9000 nM. The “interaction with MBP-NR2E1-LBD (TLX)” value with MBP-NR2E1-LBD was “no interaction”. Moreover, the “selectivity over other nuclear receptors” value in the data set on nuclear receptors is recorded as “Favorable selectivity profiles”. Further, the PNR activation entry in the data set with PNR (reporter gene assay in 293F cells) is listed as “approximately 3 fold”. Further, in the data set with PNR (reporter gene assay), the 50% effective concentration (EC50) was 5 nM.
